Source: patent publication US20120135952A1, “BUTYRIC ACID SALT OF N,N-DIMETHYL IMIDOCARBON IMIDIC DIAMIDE, METHOD OF PREPARING SAME, AND PHARMACEUTICAL COMPOSITIONS AND COMBINATIONS CONTAINING SAME” (Hanall Biopharma Co., Ltd., priority 2009, published 2012)
Counter-ions that a name gives are not always drawn. Like-named read-outs stand apart in the source and are kept apart here.

Legend:
[1] = tested on: lung cancer-derived A549 cells; test: MTT assay, cancer cell viability and growth inhibition (A549); conditions: for IC50: read-out: GROWTH INHIBITORY CONCENTRATION (GIC50), A549, 72 hours, MTT; for CELLULAR VIABILITY (%): 72 hours, relative to untreated cells
Experimental: (§1) Human breast cancer-derived MCF7 cells and lung cancer-derived A549 cells were used as a test system.
(§2) MCF7 cells and A549 cells cultured in a DMEM containing 10% fetal bovine serum were respectively dispensed at a cell density of about 5×10^3 cells/well on a 96-well plate, followed by culturing for about 24 hours.
(§3) The resulting formazane crystal was dissolved in dimethyl sulfoxide (DMSO), and absorbance of the solution was measured at 560 nm.

[2] = tested on: lung cancer-derived A549 cells; conditions: human, 72 h
Experimental: as §1, §2, §3

[3] = tested on: Human breast cancer-derived MCF7 cells; test: MTT assay, cancer cell viability and growth inhibition (MCF7); conditions: for IC50: read-out: GROWTH INHIBITORY CONCENTRATION (GIC50), MCF7, 72 hours, MTT; for CELLULAR VIABILITY (%): 72 hours, relative to untreated cells
Experimental: as §1, §2, §3

[4] = tested on: Human breast cancer-derived MCF7 cells; conditions: 72 h
Experimental: as §1, §2, §3

| SMILES | IC50 [1] | CELLULAR VIABILITY (%) ([2]; 2 mM) | CELLULAR VIABILITY (%) ([2]; 10 mM) | IC50 [3] | CELLULAR VIABILITY (%) ([4]; 2 mM) | CELLULAR VIABILITY (%) ([4]; 10 mM) | CELLULAR VIABILITY (%) ([1]; A549, 2 mM) | CELLULAR VIABILITY (%) ([1]; A549, 10 mM) | CELLULAR VIABILITY (%) ([1]; A549, 10 mM, listed as metformin butyrate) | CELLULAR VIABILITY (%) ([3]; MCF7, 2 mM) | CELLULAR VIABILITY (%) ([3]; MCF7, 10 mM) | CELLULAR VIABILITY (%) ([3]; MCF7, 10 mM, listed as metformin butyrate) | CELLULAR VIABILITY (%) ([1]; A549, 2 mM, hydrochloride) | CELLULAR VIABILITY (%) ([1]; A549, 10 mM, hydrochloride) | CELLULAR VIABILITY (%) ([3]; MCF7, 2 mM, hydrochloride) | CELLULAR VIABILITY (%) ([3]; MCF7, 10 mM, hydrochloride) |
| --- | --- | --- | --- | --- | --- | --- | --- | --- | --- | --- | --- | --- | --- | --- | --- | --- |
| CCCC(=O)O [Butyric acid, butyric acid] | 5.2 mM | 78.6% | 28.3% | 2.2 mM | 53.9% | 22.3% |  |  |  |  |  |  |  |  |  |  |
| CN(C)C(=N)NC(=N)N [Metformin butyrate, N,N-dimethyl imidodicarbonimidic diamide butyrate] | 2.5 mM |  |  | 1.6 mM |  |  | 57.7% | 11.7% | less than 20% | 45.5% | 19.9% | less than 20% |  |  |  |  |
| CN(C)C(=N)N=C(N)N [Metformin hydrochloride, metformin hydrochloride] | 3.6 mM |  |  | > 10 mM |  |  |  |  |  |  |  |  | 63.5% | 39.6% | 86.5% | 73.6% |
